From the supplement of paper PMC10307832

Tests used:
Experiment in all cases: relative viability (nuclei count vs DMSO), 5 days (fraction); higher = more cells survive
Metformin + Pictilisib = compound: CN(C)C(=N)NC(=N)N [Metformin] + CS(=O)(=O)N1CCN(Cc2cc3nc(-c4cccc5[nH]ncc45)nc(N4CCOCC4)c3s2)CC1 [Pictilisib] (partner 1 µM)
In short: (§1)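 Relative viability is defined as nuclei in treated wells over nuclei in vehicle wells. Duplicate plates were run and medians reported. Lung cancer cell lines in 1536-well plates were dosed by pin tool one day after seeding, with one drug or with a fixed anchor-drug dose plus five library-drug doses (not always all listed) in √10 steps, and nuclei were counted after 5 days.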

Metformin + Decitabine = compound: CN(C)C(=N)NC(=N)N [Metformin] + Nc1ncn([C@H]2C[C@H](O)[C@@H](CO)O2)c(=O)n1 [Decitabine] (partner 2 µM)
In short: as §1

Apatinib + Trametinib = compound: N#CC1(c2ccc(NC(=O)c3cccnc3NCc3ccncc3)cc2)CCCC1 [Apatinib] + CC(=O)Nc1cccc(-n2c(=O)n(C3CC3)c(=O)c3c(Nc4ccc(I)cc4F)n(C)c(=O)c(C)c32)c1 [Trametinib] (partner 0.02 µM)
In short: as §1

Apatinib + AZD7762 = compound: N#CC1(c2ccc(NC(=O)c3cccnc3NCc3ccncc3)cc2)CCCC1 [Apatinib] + NC(=O)Nc1cc(-c2cccc(F)c2)sc1C(=O)N[C@H]1CCCNC1 [AZD7762] (partner 0.2 µM)
In short: as §1

| Cell Line | relative viability (Metformin + Pictilisib; first compound 10 µM) | relative viability (Metformin + Pictilisib; first compound 31.62 µM) | relative viability (Metformin + Pictilisib; first compound 100 µM) | relative viability (Metformin + Pictilisib; first compound 316.23 µM) | relative viability (Metformin + Pictilisib; first compound 1000 µM) | relative viability (Metformin + Decitabine; first compound 10 µM) | relative viability (Metformin + Decitabine; first compound 31.62 µM) | relative viability (Metformin + Decitabine; first compound 100 µM) | relative viability (Metformin + Decitabine; first compound 316.23 µM) | relative viability (Metformin + Decitabine; first compound 1000 µM) | relative viability (Apatinib + Trametinib; first compound 0.08 µM) | relative viability (Apatinib + Trametinib; first compound 0.253 µM) | relative viability (Apatinib + Trametinib; first compound 0.8 µM) | relative viability (Apatinib + Trametinib; first compound 2.53 µM) | relative viability (Apatinib + Trametinib; first compound 8 µM) | relative viability (Apatinib + AZD7762; first compound 0.08 µM) | relative viability (Apatinib + AZD7762; first compound 0.253 µM) | relative viability (Apatinib + AZD7762; first compound 0.8 µM) | relative viability (Apatinib + AZD7762; first compound 2.53 µM) | relative viability (Apatinib + AZD7762; first compound 8 µM) |
| --- | --- | --- | --- | --- | --- | --- | --- | --- | --- | --- | --- | --- | --- | --- | --- | --- | --- | --- | --- | --- |
| LK-2 | 0.707 | 0.757 | 0.811 | 0.61 | 0.769 | 0.298 | 0.398 | 0.33 | 0.294 | 0.444 | 0.605 | 0.671 | 0.75 | 0.793 | 0.395 | 0.262 | 0.468 | 0.302 | 0.155 | 0.248 |
| NCI-H1975 | 0.285 | 0.327 | 0.306 | 0.314 | 0.321 | 0.334 | 0.402 | 0.65 | 0.323 | 0.394 | 0.352 | 0.3 | 0.417 | 0.424 | 0.36 |  | 0.754 | 0.71 | 0.514 | 0.655 |
| HARA | 0.504 | 0.468 | 0.497 | 0.496 | 0.46 | 0.722 | 0.498 | 0.581 | 0.621 | 0.68 | 0.736 | 0.829 | 0.673 |  | 0.6 | 0.344 | 0.38 | 0.184 |  | 0.128 |
| NCI-H2405 | 0.469 | 0.518 | 0.322 | 0.373 | 0.389 |  | 0.783 | 0.756 | 0.677 | 0.64 | 0.594 | 0.625 | 0.599 | 0.527 | 0.44 | 0.773 | 0.859 | 0.713 | 0.55 | 0.609 |
| NCI-H1734 | 0.464 | 0.48 | 0.462 | 0.407 | 0.495 | 0.502 | 0.425 | 0.435 | 0.442 | 0.499 | 0.689 | 0.712 | 0.682 | 0.664 | 0.618 | 0.597 | 0.594 | 0.548 | 0.439 | 0.389 |
| NCI-H1915 |  | 1.08 | 0.95 | 0.919 | 0.933 |  | 0.263 | 0.255 | 0.245 | 0.269 | 0.321 | 0.315 | 0.311 | 0.302 | 0.286 | 0.733 | 0.685 | 0.648 | 0.567 | 0.505 |
| NCI-H650 | 0.96 | 1.01 | 1.12 | 1.06 | 0.978 | 0.274 | 0.313 | 0.314 | 0.301 | 0.312 | 0.98 | 0.918 | 1.02 | 0.963 | 1.02 | 0.906 | 1.05 | 1.12 | 0.743 | 0.694 |
| NCI-H23 | 0.505 | 0.604 | 0.527 | 0.614 | 0.654 | 0.273 | 0.276 | 0.285 | 0.324 | 0.328 | 0.477 | 0.393 | 0.427 | 0.426 | 0.31 | 0.275 | 0.193 | 0.21 | 0.134 | 0.108 |
| NCI-H2087 | 0.909 | 1.01 | 0.772 | 0.782 | 0.957 | 0.251 | 0.231 | 0.294 | 0.294 | 0.3 | 0.188 | 0.169 | 0.205 | 0.195 | 0.191 | 1.25 | 1.25 | 1.32 | 1.05 | 1.05 |
| NCI-H358 | 0.356 | 0.424 | 0.44 | 0.332 | 0.378 | 0.202 | 0.225 | 0.214 | 0.253 | 0.213 | 0.144 | 0.12 | 0.179 | 0.159 | 0.131 | 0.548 | 0.573 | 0.475 | 0.45 | 0.343 |
| ChaGo-K-1 | 0.824 | 1.12 | 0.686 | 0.801 | 0.906 | 0.524 | 0.535 | 0.512 | 0.481 | 0.509 | 0.902 | 0.93 | 0.862 | 0.837 | 0.691 | 0.913 | 0.853 | 0.776 | 0.711 | 0.617 |
| PC-14 | 0.577 | 0.811 | 0.654 | 0.734 | 0.776 | 0.27 | 0.291 | 0.186 | 0.211 | 0.235 | 0.754 | 0.897 | 0.563 | 0.636 | 0.388 | 0.359 | 0.348 | 0.258 | 0.167 | 0.267 |
| NCI-H596 | 0.431 | 0.479 | 0.468 | 0.452 | 0.421 | 1.17 | 1.12 | 1.06 | 1.01 | 1.11 | 0.89 | 0.831 | 0.803 | 0.696 | 0.722 | 1.09 | 1.04 | 0.863 | 0.944 | 0.901 |
| LOU-NH91 | 0.555 | 0.469 | 0.53 | 0.496 | 0.549 | 0.787 | 0.799 | 0.848 | 0.797 | 0.79 | 0.826 | 0.745 | 0.716 | 0.717 | 0.729 | 0.749 | 0.724 | 0.75 | 0.677 | 0.701 |
| LU99A | 0.248 | 0.295 | 0.247 | 0.27 | 0.241 | 0.798 | 0.765 | 0.723 | 0.735 | 0.849 | 0.58 | 0.552 | 0.543 | 0.486 | 0.29 | 0.413 | 0.448 | 0.269 | 0.224 | 0.229 |
| NCI-H1355 | 0.503 | 0.439 | 0.438 | 0.435 | 0.504 | 0.402 | 0.285 | 0.332 | 0.355 | 0.372 | 0.422 | 0.444 | 0.354 | 0.367 | 0.314 | 0.699 | 0.812 | 0.593 | 0.447 | 0.457 |
